Results from ChEMBL document CHEMBL4325880, “Design, synthesis and biological evaluation of novel zanamivir derivatives as potent neuraminidase inhibitors” (Bioorg Med Chem Lett, 2018).

Assays:
[1] = test system: Influenza A virus; assay: Antiviral activity against Influenza A virus (A/WSN/1933(H1N1)) infected in MDCK cells assessed as reduction in virus-induced cytopathic effect measured everyday; assay type: functional, organism-based
[2] = Cytotoxicity against MDCK cells assessed as reduction in cell viability after 72 hrs by CellTiter-Glo assay; assay type: cell-based, Canis lupus familiaris; conditions: dog
[3] = Selectivity index, ratio of CC50 for MDCK cells to IC50 for Influenza A virus (A/WSN/1933(H1N1)); assay type: toxicity; conditions: dog, read-out: Ratio CC50/IC50
[4] = Inhibition of Clostridium neuraminidase preincubated for 2 mins followed by neuraminidase fluorescent addition and measured after 30 mins by fluorescence assay

Row | Compound | IC50 ([1]; read-out: pIC50 (converted)) [nM] | also measured
1 | CC(=O)N[C@H]1[C@H]([C@H](O)[C@H](O)CO)OC(C(=O)O)=C[C@@H]1NC(=N)NC(=O)CSc1ccc2ccccc2c1 | 20.1 | 
2 | COc1cc(CCC(=O)NC(=N)N[C@H]2C=C(C(=O)O)O[C@@H]([C@H](O)[C@H](O)CO)[C@@H]2NC(C)=O)cc(OC)c1OC | 239 | 
3 | CC(=O)N[C@H]1[C@H]([C@H](O)[C@H](O)CO)OC(C(=O)O)=C[C@@H]1NC(=N)NC(=O)Cc1ccc2ccccc2c1 | 55 | 
4 | CC(=O)N[C@H]1[C@H]([C@H](O)[C@H](O)CO)OC(C(=O)O)=C[C@@H]1NC(=N)NC(=O)c1ccc([N+](=O)[O-])cc1 | 152 | 
5 | COc1ccccc1CCC(=O)NC(=N)N[C@H]1C=C(C(=O)O)O[C@@H]([C@H](O)[C@H](O)CO)[C@@H]1NC(C)=O | 196 | 
6 | CC(=O)N[C@H]1[C@H]([C@H](O)[C@H](O)CO)OC(C(=O)O)=C[C@@H]1NC(=N)NC(=O)CC12CC3CC(CC(C3)C1)C2 | 275 | 
7 | CC(=O)N[C@H]1[C@H]([C@H](O)[C@H](O)CO)OC(C(=O)O)=C[C@@H]1NC(=N)NC(=O)CC(C)CCC=C(C)C (stereo not given in full) | 541 | 
8 | CC(=O)N[C@H]1[C@H]([C@H](O)[C@H](O)CO)OC(C(=O)O)=C[C@@H]1NC(=N)NC(=O)CCc1ccccc1C(F)(F)F | 332 | 
9 | CC(=O)N[C@H]1[C@H]([C@H](O)[C@H](O)CO)OC(C(=O)O)=C[C@@H]1NC(=N)NC(=O)CCc1ccc2ccccc2c1 | 74.8 | 
10 | CC(=O)N[C@H]1[C@H]([C@H](O)[C@H](O)CO)OC(C(=O)O)=C[C@@H]1NC(=N)NC(=O)CCCCC1CCCCC1 | 260 | 
11 | CC(=O)N[C@H]1[C@H]([C@H](O)[C@H](O)CO)OC(C(=O)O)=C[C@@H]1NC(=N)NCCSc1ccccc1 | 39400 | 
12 | CC(=O)N[C@H]1[C@H]([C@H](O)[C@H](O)CO)OC(C(=O)O)=C[C@@H]1NC(=N)NC(=O)CCc1ccccc1 | 203 | 
13 | CC(=O)N[C@H]1[C@H]([C@H](O)[C@H](O)CO)OC(C(=O)O)=C[C@@H]1NC(=N)NC(=O)CCc1ccc(N)cc1 | 176 | 
14 | CCC(C)C(=O)NC(=N)N[C@H]1C=C(C(=O)O)O[C@@H]([C@H](O)[C@H](O)CO)[C@@H]1NC(C)=O (stereo not given in full) | 774 | 
15 | CC(=O)N[C@H]1[C@H]([C@H](O)[C@H](O)CO)OC(C(=O)O)=C[C@@H]1NC(=N)NC(=O)CCCc1ccc(N)cc1 | 421 | 
16 | CC(=O)N[C@H]1[C@H]([C@H](O)[C@H](O)CO)OC(C(=O)O)=C[C@@H]1NC(=N)NC(=O)CCCCCc1ccccc1 | 233 | 

Row | Compound | IC50 ([1]; read-out: pIC50 (converted)) [nM] | also measured
17 | CC(=O)N[C@H]1[C@H]([C@H](O)[C@H](O)CO)OC(C(=O)O)=C[C@@H]1NC(=N)NC(=O)CCC1CCOC1 (stereo not given in full) | 1200 | 
18 | COc1ccccc1CC(=O)NC(=N)N[C@H]1C=C(C(=O)O)O[C@@H]([C@H](O)[C@H](O)CO)[C@@H]1NC(C)=O | 209 | 
19 | CC(=O)N[C@H]1[C@H]([C@H](O)[C@H](O)CO)OC(C(=O)O)=C[C@@H]1NC(=N)NC(=O)CSc1ccccc1 | 189 | 
20 | CC(=O)N[C@H]1[C@H]([C@H](O)[C@H](O)CO)OC(C(=O)O)=C[C@@H]1NC(=N)NC(=O)/C=C/c1cc(F)cc(F)c1 | 166 | 
21 | CC(=O)N[C@H]1[C@H]([C@H](O)[C@H](O)CO)OC(C(=O)O)=C[C@@H]1NC(=N)NC(=O)CCc1ccccc1Br | 134 | 
22 | CC(=O)N[C@H]1[C@H]([C@H](O)[C@H](O)CO)OC(C(=O)O)=C[C@@H]1NC(=N)NC(=O)Cc1ccccc1 | 46 | 
23 | CC(=O)N[C@H]1[C@H]([C@H](O)[C@H](O)CO)OC(C(=O)O)=C[C@@H]1NC(=N)NC(=O)Cc1cccc2ccccc12 | 98.4 | 
24 | CC(=O)N[C@H]1[C@H]([C@H](O)[C@H](O)CO)OC(C(=O)O)=C[C@@H]1NC(=N)NC(=O)CCc1ccccc1C | 462 | 
25 | CC(=O)N[C@H]1[C@H]([C@H](O)[C@H](O)CO)OC(C(=O)O)=C[C@@H]1NC(=N)NC(=O)CCCOc1ccccc1 | 397 | 
26 | CC(=O)N[C@H]1[C@H]([C@H](O)[C@H](O)CO)OC(C(=O)O)=C[C@@H]1NC(=N)NC(=O)CCCCCCCCCCOc1ccccc1 | 203 | 
27 | CC(=O)N[C@H]1[C@H]([C@H](O)[C@H](O)CO)OC(C(=O)O)=C[C@@H]1NC(=N)NC(=O)Cc1ccc(F)cc1 |  | CC50 at 72 h [2]: > 100000 nM; IC50 ([1]; read-out: IC50): 670 nM; selectivity ratio [3]: > 149; IC50 [4]: 35400 nM
28 | CC(=O)N[C@H]1[C@H]([C@H](O)[C@H](O)CO)OC(C(=O)O)=C[C@@H]1NC(=N)NCCc1ccc2ccccc2c1 | 34700 | 
29 | CC(=O)N[C@H]1[C@H]([C@H](O)[C@H](O)CO)OC(C(=O)O)=C[C@@H]1NC(=N)NC(=O)CCOc1ccccc1 | 180 | 
30 | CC(=O)N[C@@H]1C(NC(=N)NC(=O)c2ccc(-c3ccc(O)cc3)cc2)C=C(C(=O)O)O[C@H]1[C@H](O)C(O)CO (single isomer, unassigned) |  | CC50 at 72 h [2]: > 100000 nM; IC50 ([1]; read-out: IC50): 6950 nM; selectivity ratio [3]: > 14; IC50 [4]: 97500 nM
31 | CC(=O)N[C@H]1[C@H]([C@H](O)[C@H](O)CO)OC(C(=O)O)=C[C@@H]1NC(=N)N [ZANAMIVIR] |  | CC50 at 72 h [2]: > 100000 nM; IC50 ([1]; read-out: IC50): 873 nM; selectivity ratio [3]: > 115; IC50 [4]: 130000 nM
